Measurements reported in ChEMBL document CHEMBL5727777, “Piperidin-4-yl azetidine derivatives as JAK1 inhibitors” (2020).

Biological target: Tyrosine-protein kinase JAK1 (Homo sapiens, UniProt P23458)
Test: In vitro JAK Kinase Assay: The catalytic domains of human JAK1 (a.a. 837-1142), Jak2 (a.a. 828-1132) and Jak3 (a.a. 781-1124) with an N-terminal His tag were expressed using baculovirus in insect cells and purified. The catalytic activity of JAK1, JAK2 or JAK3 was assayed by measuring the phosphorylation of a biotinylated peptide. The phosphorylated peptide was detected by homogenous time resolved fluorescence (HTRF). […] Reactions were carried out at room temperature for 1 hr and then stopped with 20 μL 45 mM EDTA, 300 nM SA-APC, 6 nM Eu-Py20 in assay buffer (Perkin Elmer, Boston, Mass.). Binding to the Europium labeled antibody took place for 40 minutes and HTRF signal was measured on a Fusion plate reader (Perkin Elmer, Boston, Mass.)

Tyrosine-protein kinase JAK1, sequence (P23458 whole entry, the tested form may be a part): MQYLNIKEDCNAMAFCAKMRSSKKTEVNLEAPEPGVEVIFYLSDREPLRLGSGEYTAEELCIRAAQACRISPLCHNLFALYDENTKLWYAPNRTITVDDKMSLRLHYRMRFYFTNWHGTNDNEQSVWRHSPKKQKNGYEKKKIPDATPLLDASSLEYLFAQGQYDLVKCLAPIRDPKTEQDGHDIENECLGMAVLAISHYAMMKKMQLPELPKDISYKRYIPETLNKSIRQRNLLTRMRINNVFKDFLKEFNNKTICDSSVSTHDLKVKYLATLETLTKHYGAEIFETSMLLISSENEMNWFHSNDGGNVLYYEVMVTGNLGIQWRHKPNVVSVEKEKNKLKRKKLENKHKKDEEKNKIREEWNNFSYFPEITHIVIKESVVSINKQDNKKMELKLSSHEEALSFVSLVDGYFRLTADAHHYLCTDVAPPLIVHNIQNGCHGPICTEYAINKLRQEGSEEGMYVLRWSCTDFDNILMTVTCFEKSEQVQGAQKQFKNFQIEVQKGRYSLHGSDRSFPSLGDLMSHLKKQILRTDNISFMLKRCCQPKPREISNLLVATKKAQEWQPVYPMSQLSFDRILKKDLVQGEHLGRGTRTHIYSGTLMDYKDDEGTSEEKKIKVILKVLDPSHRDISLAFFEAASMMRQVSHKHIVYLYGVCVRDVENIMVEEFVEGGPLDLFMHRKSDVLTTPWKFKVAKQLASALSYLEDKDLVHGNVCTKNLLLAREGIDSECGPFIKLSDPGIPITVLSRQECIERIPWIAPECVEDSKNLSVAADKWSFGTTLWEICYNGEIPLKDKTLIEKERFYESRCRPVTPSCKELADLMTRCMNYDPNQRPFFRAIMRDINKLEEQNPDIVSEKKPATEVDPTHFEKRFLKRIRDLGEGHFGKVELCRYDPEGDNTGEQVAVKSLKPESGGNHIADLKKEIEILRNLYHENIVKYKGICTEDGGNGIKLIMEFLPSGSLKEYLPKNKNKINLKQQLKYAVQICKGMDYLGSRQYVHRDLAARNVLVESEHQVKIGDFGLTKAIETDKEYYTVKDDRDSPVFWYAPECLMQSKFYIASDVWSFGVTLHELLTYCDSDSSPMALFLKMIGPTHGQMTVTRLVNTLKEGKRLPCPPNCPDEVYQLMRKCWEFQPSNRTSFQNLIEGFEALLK

IC50: < 5 nM
SMILES: N#CCC1(n2cc(-c3ncnc4[nH]ccc34)cn2)CN(C2CCN(C(=O)OCC3CCCCC3)CC2)C1
